Experimental data published in patent publication US20090220516A1, “Neuroprotection of retinal ganglion cells” (priority 2005, published 2009).
Values joined by “and” are separate entries in the source; they are usually repeats but may differ in a detail not shown here. Equal entries are not always repeated.

What was measured:
retinal ganglion cells [1] = test: Intracellular Ca2+ measurements (fura-2): BzATP-triggered Ca2+ elevation in ganglion cells from mixed retinal cultures; assay type: cell-based, rat
Method: (§1) Pups PD2-6 from untimed pregnant Long-Evan rats (Jackson Laboratory Inc., Bar Harbor, Me.) were back-labeled by the injection of FluoroGold derivative aminostilbamidine (Molecular Probes, Eugene, Oreg.) based upon standard protocols. […] Using a Hamilton syringe affixed to a micromanipulator, a needle was inserted 0.8 mm lateral from the midline and 0.8 mm anterior to Bregma's line and a total of 2.5 μl dye was delivered to each side at a depth of 2 mm and 1 mm. The needle was retracted after a delay of 2 min to allow dye absorption and the wound was closed with 2-3 sutures. Preliminary examination of labeled retinal whole mounts confirmed an even distribution of dye, showing all cells were stained 2 days after injection, with no further increase in the number of labeled cells in subsequent days. Consequently, retinas containing labeled ganglion cells were dissociated 2-6 days after injection. Animals were sacrificed by i.p. injection of 50/5 mg/kg Ketamine/Xylazine followed by an overdose, in accordance with University of Pennsylvania IACUC approved protocols and the ARVO Statement on the Use of Animals in Ophthalmic and Vision Research.
The retina was dissected from each globe, washed in sterile Hanks' balanced salt solution (HBSS, Gibco, Inc Invitrogen Corp., Carlsbad, Calif.), then incubated in HBSS containing activated papain (4.5 U/ml; Worthington Biochemical Corp., Lakewood, N.J.) for 12 minutes at 37° C. Retinas were washed twice and triturated 50 times with a 1-ml glass pipette to dissociate cells. Cells were plated onto twelve 12-mm coverslips previously coated with poly-L-lysine. The basic growth medium contained Neurobasal medium with 2 mM glutamine, 100 μg/ml gentamicin, 0.025 ml/ml B27 supplement (all Invitrogen Inc., Carlsbad, Calif.), 0.7% methylcellulose (Stemcell Technologies Inc., Vancouver, BC, Canada) and 2.5% rat serum (Cocalico Biologicals Inc., Reamstown, Pa.). Retinal cells were incubated at 37° C. with 5% CO2.
(§2) Unlabeled RGCs grown on coverslips for 24 hrs were loaded with 10 μM fura-2 and 2% pluoronic (Molecular Probes, Eugene, Oreg.) for 60-90 min at room temperature, rinsed and maintained in fura-2-free solution for 30 min before data acquisition began. The coverslips were mounted on a Nikon Diaphot inverted microscope and visualized with a 40× objective. […] To obtain Ca^2+ measurements, the field was alternatively excited at 340 nm and 380 nm with a scanning monocrometer and the fluorescence emitted >520 nm from a region of interest surrounding individual retinal ganglion cells was imaged with a CCD camera and analyzed (all Photon Technologies International, Inc., Lawrenceville, N.J.). Cells were perfused with a control solution at the start of Ca^2+imaging experiments containing (in mM) 105 NaCl, 4.5 KCl, 2.8 NaHepes, 7.2 Hepes acid, 1.3 CaCl2, 0.5 MgCl2, 5 glucose, 75 mannitol, pH 7.4. Drugs were dissolved into the control solution. Calibration was performed separately on each cell after the experiment by perfusing cells in the presence of 5 μM ionomycin and control solution (with 1.3 mM Ca2+) followed by ionomycin in the base solution without Ca^2+ and with the addition of 5 mM EGTA (pH 7.4). The 340/380 ratio was converted to Ca^2+ concentration as previously described. All experiments were performed at room temperature.
In Ca^2+ experiments, n refers to the number of responses tested. The BzATP concentration-response curve was fit with a standard exponential function y=y0+ae(−bx) using Sigmaplot software (SPSS Inc, Chicago, Ill.). The % block of Ca2+ elevations is defined as 100*(a−b)/a, where a is the response under control conditions and b is the response under experimental conditions. All materials are from Sigma Chemical Corp, (St. Louis, Mo.) unless otherwise indicated.

[2] = tested on: isolated retinal ganglion cells; test: Intracellular Ca2+ measurements: BzATP-triggered Ca2+ elevation in isolated (immunopanned) retinal ganglion cells; assay type: cell-based, rat; conditions: 50 μM BzATP 15 sec, purified ganglion cells
Method: as §2
(§3) Purification of ganglion cells using the panning procedure is based upon published methods (Hartwick et al., 2004). Neonatal rat retinas (PD 7-12) were dissected and incubated at 37° C. for 30 min in HBSS containing 15 U/mL papain, 0.2 mg/mL DLcysteine and 0.004% DNAse I (Worthington/Cooper, Lakewood, N.J.). The tissue was triturated in HBSS with 1.5 mg/ml ovomucoid (Worthington/Cooper, Lakewood, N.J.), 1.5 mg/ml BSA and 0.004% DNase I, centrifuged at 200 g for 11 minutes at room temperature, and cells were rewashed with 10 mg/ml ovomucoid-BSA solution. After centrifugation, cells were resuspended with PBS containing 0.2 mg/ml BSA and 5 μg/ml insulin and filtered through a Nitex mesh (Small Parts Inc, Miami Lakes, Fla.). […]

retinal ganglion cells [3] = test: Cell viability studies: labeled retinal ganglion cells surviving after 24 hrs in mixed retinal cultures; assay type: cell-based, rat; conditions: for reduction in the number of dead cells / protection against cell death triggered by BzATP: 50 uM BzATP + 100 nM A3 agonist
Method: as §1
The retina was dissected from each globe, washed in sterile Hanks' balanced salt solution (HBSS, Gibco, Inc Invitrogen Corp., Carlsbad, Calif.), then incubated in HBSS containing activated papain (4.5 U/ml; Worthington Biochemical Corp., Lakewood, N.J.) for 12 minutes at 37° C. Retinas were washed twice and triturated 50 times with a 1-ml glass pipette to dissociate cells. Cells were plated onto twelve 12-mm coverslips previously coated with poly-L-lysine. […] Retinal cells were incubated at 37° C. with 5% CO2.
Drugs were added to the culture medium at the time when cells were plated onto coverslips. […] All counts were performed in a masked fashion. In experiments involving antagonist pretreatment, drugs were added to the medium at the time of plating. After preincubation at 37° C., stock concentrations of BzATP were added directly to the cells to give the final concentration shown.
Data are presented as mean±standard error of the mean. Significance was evaluated using a Student's unpaired t test, with a p value <0.05 signifying significance. For cell viability studies, the number of experiments, n, represents the number of coverslips from which 80 fields were measured and averaged. All values were normalized to the mean control level for that day's matched set of experiments to control for variation in plating efficiency.

isolated ganglion cells = test: Glutamate release from isolated ganglion cells (GDH/NADH fluorescence); assay type: cell-based, rat
Method: as §3
The measurement of glutamate was analogous to that used previously by the Haydon laboratory. […] NADH fluorescence is excited using a xenon arc lamp (100 watts) with a D360/10x exciter filter (Chroma Technology Corp., Brattleboro, Vt.), 510DRLP dichroic mirror (Omega Optical, Brattleboro, Vt.), and 515EFLP emission filter (Omega Optical). Images collected before, during and after the BzATP stimulus indicate the level of fluorescence. The percent increase in fluorescence, figured by dividing the change in fluorescence (ΔF) by the fluorescence level before stimulation (F0), represents the level of glutamate release. […]

human A2B receptors = biological target: T1, human A2B receptors (Homo sapiens, UniProt P29275); conditions: cited from earlier work
T1 sequence (P29275 1-332): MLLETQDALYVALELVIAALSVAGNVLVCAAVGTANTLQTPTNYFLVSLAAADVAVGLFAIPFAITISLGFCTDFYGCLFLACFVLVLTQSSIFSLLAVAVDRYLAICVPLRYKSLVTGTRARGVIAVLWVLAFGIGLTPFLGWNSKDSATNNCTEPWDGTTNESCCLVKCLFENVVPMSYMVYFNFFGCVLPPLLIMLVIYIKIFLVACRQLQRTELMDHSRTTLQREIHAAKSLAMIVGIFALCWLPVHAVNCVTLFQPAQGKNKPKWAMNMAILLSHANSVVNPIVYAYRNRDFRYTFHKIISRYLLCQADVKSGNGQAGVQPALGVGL

[4] = 50 uM BzATP + 100 nM A3 agonist (30 min before and during), 24 hrs

For `N[C@@H](CCCP(=O)(O)O)C(=O)O` [APV, D-amino-phosphonovalerate], which “mean reduction of Ca2+ elevation triggered by BzATP” value (retinal ganglion cells [1]; APV (100 μM in FIG. 2C, 300 μM in summary), 50 μM BzATP 15 sec) is on record?
The value was 39.7±12.6%.

And the “block of Ca2+ response to BzATP” value ([2]; 100 μM APV)?
The value was 36.1±7.5%.

And the “ganglion cell survival levels” value (retinal ganglion cells [3]; 50 μM BzATP + APV, 24 hrs)?
Its value is 77.8±5.9%.

With `Nc1ncnc2c1ncn2[C@@H]1O[C@H](COP(=O)(O)OP(=O)(O)OP(=O)(O)O)[C@@H](OC(=O)c2ccc(C(=O)c3ccccc3)cc2)[C@H]1O` [BzATP] as the compound, how does the “mean levels of Ca2+” value (retinal ganglion cells [1]; first exposure to 50 μM BzATP alone, 15 sec) read?
The value was 647.0 ± 80.7 nM.

And the “mean levels of Ca2+” value (retinal ganglion cells [1]; third exposure to BzATP after removal of CI-IB-MECA)?
Its value is 600.3 ± 227.6 nM.

What about the “increase in absorbance at 360 nm (glutamate release)” value (isolated ganglion cells; BzATP alone, 17 applications from 7 coverslips) of the same compound?
The value was 17.1±4.0%.

What about the “ganglion cell survival, % of control” value (retinal ganglion cells [3]; 50 μM BzATP alone, 24 hrs) of the same compound?
Its value is 62.9 % of control and 68.9±2.3 % of control and 56.8 % of control and 79.0±2.9 % of control.

What does the source list for `CNC(=O)C1OC(n2cnc3c(NCc4cccc(I)c4)nc(Cl)nc32)C(O)C1O` (stereo not shown) [CI-IB-MECA, 2-chloro-N6-(3-iodobenzyl)-adenosine-5-N-methyluronamide]?
block of Ca2+ increase, normalized to peak of first response (retinal ganglion cells [1]; 100 nM CI-IB-MECA, 50 μM BzATP 15 sec): 81%; mean levels of Ca2+ (retinal ganglion cells [1]; second BzATP application in presence of 100 nM CI-IB-MECA): 110.7 ± 32.8 nM; ganglion cell survival, % of control (retinal ganglion cells [3]; [4]): 80.1±4.7 % of control; reduction in the number of dead cells / protection against cell death triggered by BzATP (retinal ganglion cells [3]; 24 hrs): 54%; Kd (human A2B receptors): > 100 µM

For `CNC(=O)[C@H]1O[C@@H](n2cnc3c(NCc4cccc(I)c4)ncnc32)[C@H](O)[C@@H]1O` [IB-MECA], which “ganglion cell survival, % of control” value (retinal ganglion cells [3]; [4]) is on record?
The value was 98.5±2.7 % of control.

What about the “reduction in the number of dead cells / protection against cell death triggered by BzATP” value (retinal ganglion cells [3]; 24 hrs) of the same compound?
Its value is 95%.

What does the source list for `C[C@]12N[C@H](Cc3ccccc31)c1ccccc12` [MK-801]?
decrease of Ca2+ elevation triggered by BzATP (retinal ganglion cells [1]; 10 μM MK-801, 50 μM BzATP 15 sec, peak vs mean response before and after): 55.1±6.5%; decrease of Ca2+ elevation triggered by BzATP ([2]; 10 μM MK-801): 50.1±5.5%; ganglion cell survival, % of control (retinal ganglion cells [3]; 50 μM BzATP + 10 μM MK-801, 24 hrs): 102.7±3.2 % of control

Which “ganglion cell survival, % of control” value (retinal ganglion cells [3]; 100 uM NMDA alone, 24 hrs) does the source give for `CN[C@H](CC(=O)O)C(=O)O` [NMDA, N-methyl-D-aspartate] here?
The value was 69.9±3.2 % of control.

For `Nc1ncnc2c1ncn2[C@@H]1O[C@H](CO)[C@@H](O)[C@H]1O` [adenosine], which “block of Ca2+ increase compared to BzATP alone” value (retinal ganglion cells [1]; 300 uM adenosine, two minute 50 uM BzATP) is on record?
The value was 85%.

And the “effect on Ca2+ response to brief 50 uM BzATP” value (retinal ganglion cells [1]; adenosine added with alternate BzATP applications, reversible, repeatable)?
The value was “greatly reduced the response”.

What about the “peak Ca2+ levels” value (retinal ganglion cells [1]; two minute application of 50 uM BzATP in presence of 300 uM adenosine (2 min pretreatment), n=7) of the same compound?
Its value is 215 ± 62 nM.

What about the ganglion cell survival (retinal ganglion cells [3]; 50 μM BzATP + 300 uM adenosine (30 min before), 24 hours) of the same compound?
Its ganglion cell survival is 91.2±3.5%.

What about the “ganglion cell survival, % of control” value (retinal ganglion cells [3]; 50 μM BzATP + 1 mM adenosine, 24 hours) of the same compound?
Its value is 92.4±2.5 % of control.

What about the “ganglion cell counts, % of control” value (retinal ganglion cells [3]; 100 uM NMDA + 300 uM adenosine, 24 hrs) of the same compound?
Its value is 102.1±3.9 % of control.

Which “net absorbance change (glutamate release) in response to BzATP” value (isolated ganglion cells; in presence of brilliant blue G, n=3) does the source give for `CCOc1ccc(Nc2ccc(/C(=C3C=C/C(=[N+](/CC)Cc4cccc(S(=O)(=O)[O-])c4)C=C/3C)c3ccc(N(CC)Cc4cccc(S(=O)(=O)[O-])c4)cc3C)cc2)cc1.[Na+]` [brilliant blue G] here?
The value was −0.9±0.9%.

Which results are given for `CC12CC3CC(C)(C1)CC(N)(C3)C2` [memantine]?
reduction of Ca2+ elevation triggered by BzATP (retinal ganglion cells [1]; 30 μM memantine, in 4/7 experiments, effect variable, 50 μM BzATP): 65.5±6.7%; inhibition at 30 µM ([2]; Rattus norvegicus, 30 μM memantine, read-out: inhibition of Ca2+ response to BzATP): 18.4 ± 4.2%; effect on ganglion cell survival (retinal ganglion cells [3]; 50 μM BzATP + 100 μM memantine, 24 hrs): neuroprotective
